Reference: patent US20210177814A1, “USE OF GUANABENZ OR DERIVATES THEREOF FOR THE TREATMENT OF TYPE I IFN-DEPENDENT PATHOLOGIES” (INSERM (Institut National de la Santé et de la Recherche …, priority 2018, published 2021)

Molecular target: T1, TLR9 (Homo sapiens, UniProt Q9NR96)
T1 sequence (Q9NR96 26-1032): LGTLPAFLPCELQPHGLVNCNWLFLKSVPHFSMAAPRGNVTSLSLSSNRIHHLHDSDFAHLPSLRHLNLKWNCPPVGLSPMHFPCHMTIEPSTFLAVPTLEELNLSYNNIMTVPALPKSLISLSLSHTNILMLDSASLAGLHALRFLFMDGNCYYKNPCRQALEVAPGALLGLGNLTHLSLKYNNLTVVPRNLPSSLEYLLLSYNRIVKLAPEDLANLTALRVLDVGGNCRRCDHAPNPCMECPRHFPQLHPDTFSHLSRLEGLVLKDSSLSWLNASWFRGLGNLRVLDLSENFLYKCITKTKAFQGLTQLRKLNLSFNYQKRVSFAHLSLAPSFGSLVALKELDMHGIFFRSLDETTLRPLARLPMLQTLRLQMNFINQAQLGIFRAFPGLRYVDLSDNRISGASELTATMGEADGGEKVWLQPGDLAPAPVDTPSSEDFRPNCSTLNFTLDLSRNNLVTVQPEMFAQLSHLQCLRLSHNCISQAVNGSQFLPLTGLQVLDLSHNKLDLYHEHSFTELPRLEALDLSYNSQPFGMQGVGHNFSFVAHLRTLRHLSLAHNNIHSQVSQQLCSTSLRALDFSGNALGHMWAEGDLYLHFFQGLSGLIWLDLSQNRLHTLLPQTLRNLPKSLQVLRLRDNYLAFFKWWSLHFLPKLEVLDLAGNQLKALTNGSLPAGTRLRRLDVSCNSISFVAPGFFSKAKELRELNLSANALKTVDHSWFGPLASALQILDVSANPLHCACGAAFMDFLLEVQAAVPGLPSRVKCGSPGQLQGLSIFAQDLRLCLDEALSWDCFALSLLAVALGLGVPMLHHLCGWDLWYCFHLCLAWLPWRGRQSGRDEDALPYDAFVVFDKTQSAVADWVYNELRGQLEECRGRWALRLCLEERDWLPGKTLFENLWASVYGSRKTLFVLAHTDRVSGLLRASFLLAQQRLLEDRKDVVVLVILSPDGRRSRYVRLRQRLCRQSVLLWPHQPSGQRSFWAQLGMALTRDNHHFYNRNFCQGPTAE
Assay: Cytokine secretion by human primary blood pDCs activated with CpG ODN 2216 or lupus patient serum
Format: cell-based
Parameters: endogenous in cells; host or cells: human primary blood pDCs
Conditions: 3 μM CpG ODN 2216 or 2% lupus serum, GBZ 50 μM
Protocol: FIG. 1: Guanabenz inhibits TLR3 and TLR9 activation in mouse Flt3-L DCs and human blood pDCs. A) Sorted bone marrow derived Flt3L-DCs were activated for 6 h with 10 μg/mL poly I:C LMW (TLR3 in DC1) or 1 μM ODN 1585 (TLR9 in pDCs). GBZ was added at 50 μM and inhibited IFN-β and Interleukin-6 (IL-6) production in activated cells. B) hTLR4, hTLR3, hTLR9 and hTLR7 expressed in the reporter HEK-Blue™ cells are inhibited by GBZ. TLR-expressing HEK-Blue™ cells were respectively activated with 100 ng/mL LPS, 10 μg/mL poly I:C LMW, 2.5 μM ODN 2006 or 5 μg/mL imiquimod, respectively. GBZ was added at 50 μM. TLR activity was measured indirectly through SEAP activity as absorbance at 405 nm. […] Protein concentration of IFN-α and TNF-α secreted were measured at the indicated time points or at 16 h. […]
Mouse IFN-β quantification in culture supernatant was performed using the Mouse Interferon Beta ELISA kit (PBL InterferonSource); mouse IL-6, TNFα, IL-10, human TNFα and human IFNα were quantified using ELISA kit (eBioscience) respectively, according to manufacturer instructions.
Given the efficiency of GBZ on mouse TLR3 and TLR9, we turned to human TLRs, in order to extend the relevance of our observations. GBZ-mediated inhibition was first evaluated on NF-kB signaling by monitoring secreted alkaline phosphatase (SEAP) reporter levels in HEK-293 cells expressing TLR3, TLR4, TLR7, TLR9 (FIG. 1B). […]

NC(N)=N/N=C/c1c(Cl)cccc1Cl [GBZ, 2-(2,6-dichlorobenzylidene)-hydrazinecarboximidamide]
production of TNF-α: prevented
production of type-I IFN (IFN-α): prevented
